The text below walks through data of PubChem BioAssay AID1159560 (GlaxoSmithKline (GSK), 2015).

Each structure is given as a SMILES string. Calls of active or inactive are those of the source. How the calls were made is not given here. Where only a bound is given, the exact number is not on record here.

In this assay the test system is Leishmania donovani growth inhibition. Nature of the assay: antileishmanial activity against L. donovani parasites (AID 1159560).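 Further: parasites exposed to compound for 72 h before the viability read.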
In the case of `Cc1cc(C#N)c([N+](=O)[O-])cc1Br`, the IC50 (as a rule, the concentration that inhibits the measured activity by half) was 25 µM.

For `Nc1nc(-c2ccccn2)nc(N)c1Cc1c(F)cccc1Cl`, the IC50 is 2.5 µM.

With `N#Cc1ccc(Br)cc1[N+](=O)[O-]`, the IC50 was 7.9 µM.

Regarding `O=C(Nc1n[nH]c(-c2ccccn2)n1)C1CC1c1ccccc1` (centres undefined), the IC50 is 13 µM.

`O=C(Nc1nc2cc(Cl)ccc2o1)c1cccc(Cl)c1`: the IC50 is 0.4 µM.

As to `Cc1ccc(NC(=O)c2ccc(Cl)c(NC(=O)c3ccc([N+](=O)[O-])cc3)c2)cc1`, the IC50 is > 50 µM (inactive).

As to `CC(=O)NCCNc1cc(-c2ccnc(Nc3cccc(Cl)c3)n2)ccn1`, the IC50 is 0.32 µM.

In the case of `CC(C(=O)Nc1ccccc1F)N(C)CC(=O)Nc1cccc2ccccc12` (centres undefined), the IC50 was 50 µM.

Turning to `CNc1nc(C)nc(N2CCc3cc(C(=O)NCc4ccc(-c5ccn[nH]5)cc4Cl)ccc32)n1`, the IC50 was 2.5 µM.

As to `O=c1cc(NCCCNCc2c[nH]c3ccc(Br)cc23)[nH]c2ccccc12`, the IC50 was > 50 µM (inactive).

With `CNc1cc(Cn2c(C(=O)c3cc(C)cc(Cl)c3)c(C(C)C)c(=O)[nH]c2=O)ccn1`, the IC50 was > 50 µM (inactive).

Consider `CCN(C)Cc1ccc(N2CCC(NS(=O)(=O)c3ccc4c(c3)CCO4)CC2)nc1`, for which the IC50 was > 50 µM (inactive).

For the compound `CCn1c(NC(=O)Cc2ccc(F)cc2)nc2ccccc21`, the IC50 was 10 µM.

Turning to `O=C1NCc2cccc(Nc3nc(NC4CCC(O)CC4)ncc3Br)c21` (centres undefined), the IC50 was 0.79 µM.

Regarding `NC(=O)c1ncccc1Nc1nc(NC2CCC(O)CC2)ncc1Br` (centres undefined), the IC50 was 1.3 µM.

As for `CCC1Oc2cc(S(=O)(=O)N(C)CC(=O)N3CCc4ccccc4C3)c(C)cc2NC1=O` (centres undefined), the IC50 was > 50 µM (inactive).

On to `O=C(CN(Cc1ccccn1)Cc1ccccn1)NC1Cc2ccccc2C1`, for which the IC50 is 13 µM.

Take `Cc1c([N+](=O)[O-])c(C(=O)Nc2sc3c(c2C#N)CCC(C)C3)nn1C` (centres undefined): the IC50 is 25 µM.

In the case of `O=C(NCCc1nc(-c2ccc(F)c(F)c2)n[nH]1)C1CCCCC1`, the IC50 was > 50 µM (inactive).

Regarding `COc1cc(Nc2nccc(Nc3onc(C)c3C)n2)cc(S(=O)(=O)C2CCOCC2)c1`, the IC50 is 40 µM.

In the case of `COc1cccc(-c2c(C)nn(-c3nc(N)nc(-c4ccccn4)n3)c2N)c1`, the IC50 is 5 µM.

In the case of `CCCc1cc(C(=O)Nc2ncc(-c3cccc(Br)c3)n2C)n[nH]1`, the IC50 was 6.3 µM.

For the compound `C=CCOCC1Cn2nc([N+](=O)[O-])nc2O1` (centres undefined), the IC50 is > 50 µM (inactive).

On to `Oc1cccnc1-c1n[nH]c(Cc2ccccc2)n1`, for which the half-inhibitory concentration (IC50) was 2 µM.

For the compound `COc1ccc2ncc(Cl)c(CCN3CC[C@@H](NCc4cc5c(cn4)OCS5)[C@H](O)C3)c2n1`, the IC50 was 10 µM.

On to `Oc1c(-c2n[nH]c(CCc3ccccc3)n2)ncc2cccnc12`, for which the IC50 was 0.32 µM.

In the case of `NC(=O)c1ccccc1Nc1nc(NC2CCCCC2)nc2[nH]ccc12`, the half-inhibitory concentration (IC50) was 20 µM.

Take `COc1ccc2nc(N(Cc3cccnc3)C(=O)C3CCC3)sc2c1`: the IC50 was 13 µM.

In the case of `Cc1nnnn1-c1cccc(C(=O)N2CCC[C@@]3(C)c4ncncc4CCC23)c1` (some centres undefined), the IC50 is 0.4 µM.

In the case of `Cc1ccc2sc(NC(=O)Cn3cnc([N+](=O)[O-])n3)nc2c1`, the IC50 was > 50 µM (inactive).

As to `Cn1nc(C(=O)N2CCc3ccccc32)c2c1CCS(=O)(=O)C2`, the IC50 is 4 µM.

With `O=C(COc1ncnc2cc([N+](=O)[O-])ccc12)NC(=O)NC1CCCCC1`, the IC50 was > 50 µM (inactive).

Take `c1ccc2[nH]c(-c3ccc(N4CCCC4)nc3)nc2c1`: the IC50 is 5 µM.

For `Cc1cc2nc(CN(C)Cc3ncccc3C)[nH]c2cc1C`, the IC50 is 5 µM.

`Cc1ccc(NC(=O)C(C)n2nc([N+](=O)[O-])c(Br)c2C)cc1Cl` (centres undefined): the IC50 is > 50 µM (inactive).

Turning to `O=C(Nc1cccc(F)c1)N1CCC(Oc2cccc(-c3cccnc3)c2)CC1`, the IC50 is 0.5 µM.

On to `O=C(Nc1nc2ccccc2[nH]1)c1ccc2nc[nH]c2c1`, for which the IC50 was 2.5 µM.

Turning to `CN(Cc1cc2ccccc2s1)c1ncc2c(N)nc(N)nc2n1`, the IC50 was 32 µM.

`Oc1c(-c2n[nH]c(Cc3ccc(Cl)cc3)n2)ncc2cccnc12`: the IC50 was 0.25 µM.

In the case of `Cc1nn(-c2nc(N)nc(-c3ccccn3)n2)c(C)c1Cc1ccccc1`, the IC50 was 5 µM.

Take `COc1ccc2ncc(=O)n(CCN3CCC(NCc4ccc(-c5cccs5)cc4)CC3)c2n1`: the IC50 is 1.6 µM.

Take `NCc1ccc2c(Cl)cc(Cl)c(O)c2n1`: the IC50 is 6.3 µM.

As for `N#Cc1cccc(Nc2nccc(N3CCC(NS(=O)(=O)c4cccc(C#N)c4)CC3)n2)c1`, the IC50 was 0.63 µM.

`Cc1[nH]nc(-c2nc3ccccc3[nH]2)c1C(=O)NC1CCCNC1` (centres undefined): the IC50 is 10 µM.

Consider `CCOC(=O)c1noc(N)c1-c1ccccc1`, for which the IC50 was > 50 µM (inactive).

With `COc1ccccc1CNc1cc(C2CC2)nc(-c2nccn2C)n1`, the IC50 was 1 µM.

Regarding `COc1ccc2ncc(=O)n(CCN3CCOC(CNCc4ccc(C(F)(F)F)cc4F)C3)c2n1` (centres undefined), the IC50 was 40 µM.

As to `COc1ccc(-c2cnc(NC(=O)c3cc(-c4ccccn4)n[nH]3)n2C)cc1`, the IC50 is 4 µM.

As to `Cc1ccc(S(=O)(=O)Nc2ccc(CN3CCN(C(=O)c4cccc(C#N)c4)CC3)cc2)cc1`, the IC50 is 10 µM.

As for `O=C(CCc1ccc(-c2ccccc2)o1)N1CCN(c2ccc(O)cc2)CC1`, the IC50 was 10 µM.

Turning to `O=S(=O)(c1ccccc1C(F)(F)F)N1CCN(Cc2ccc(-n3ccnc3)cc2)CC1`, the IC50 is 6.3 µM.

As to `COc1cc(Cl)c(C)cc1NC(=O)c1ccc([N+](=O)[O-])s1`, the IC50 was 7.9 µM.

Regarding `Cc1nn(C)c(Cl)c1CN(Cc1cccnc1)Cc1ccsc1`, the IC50 was 2 µM.

In the case of `COc1ccc(CN2CCCCC2c2nc(-c3cccnc3)no2)cc1` (centres undefined), the IC50 was > 50 µM (inactive).

`COc1ccc([N+](=O)[O-])cc1NC(=O)c1cc(Cl)ccc1O`: the IC50 is 7.9 µM.

Take `CN(Cc1nc2ccccc2s1)C(=O)C=Cc1cc2ccccc2o1`: the IC50 was 50 µM.

For `COc1ccc(Nc2nc(-c3ccccn3)cs2)c(OC)c1`, the IC50 was 6.3 µM.

For the compound `COc1ccc(C(C)N(C)c2ncc3c(N)nc(N)nc3n2)cc1F` (centres undefined), the IC50 is 4 µM.

Take `CCOc1ccc(NC(=O)c2ccc(NC(=O)NC3CCCCC3)cc2)cc1`: the IC50 is > 50 µM (inactive).

As to `COc1ccc(CNc2cc(C3CC3)nc(-c3nccn3C)n2)cc1`, the IC50 was 2 µM.

Take `CC(=O)Nc1cccc(Nc2ncnc3nc[nH]c23)c1`: the IC50 was > 50 µM (inactive).

On to `CCc1cccc(CC)c1-n1c(SCC(=O)N2CC(=O)Nc3ccccc32)nnc1-c1cccnc1`, for which the IC50 is 40 µM.

With `Cc1c(CNC(=O)c2ccc(Cn3cc(Cl)c([N+](=O)[O-])n3)cc2)cnn1C`, the IC50 was > 50 µM (inactive).

Consider `c1ccc(-c2nc(NC3CCCCC3)cc(C3CC3)n2)nc1`, for which the IC50 was 0.79 µM.

In the case of `Nc1cc(-c2ccc3ncnc(N4CCOCC4)c3c2)cnc1N`, the IC50 was 4 µM.

In the case of `O=C(Cc1ccccc1)Nc1ccccc1C(=O)Nc1nccs1`, the IC50 is > 50 µM (inactive).

Turning to `C=CCN(Cc1cccs1)C(=O)CSc1nnc(-c2ccc3c(c2)OCO3)o1`, the IC50 was 6.3 µM.

In the case of `O=C(CSc1nnc2ccc(-c3ccc(F)cc3)nn12)N1CCCCC1`, the IC50 was > 50 µM (inactive).

`CCCc1nc2nc(N)nc(N)c2cc1CC`: the IC50 is 2 µM.
